These results are taken from US20030162815A1, “Thiazolidinedione salt for treatment of diabetes mellitus” (priority 2003, published 2003).

Broadly, the solubility is the concentration that dissolves in the medium under given conditions. Low readings indicate a poorly soluble substance, high ones a readily soluble substance.

Common to all, as to format: physicochemical
A short description of series [1]: Solubility of the Hydrobromide in water (visual, confirmed by HPLC assay of a saturated solution). The settings on record: thermodynamic from solid, product of Example 3.
Text: The visual solubility was confirmed by an HPLC assay of a saturated solution.
Series [2] is described as follows: Solid state stability of the Hydrobromide (storage for 1 month, HPLC assay for final content and degradation products). The settings on record: product of Example 3.
Experimental: The solid state stability of the drug substance was determined by storing approximately 1.0 g of the material in a glass bottle at i) 40° C./75% Relative Humidity (RH), open exposure, for 1 month and b) at 50° C., closed, for 1 month. The material was assayed by HPLC for final content and degradation products in both cases.
A short description of series [3]: Flow properties of the Hydrobromide (Hausner Ratio, bulk density vs tapped bulk density). The conditions noted are these: ratio between bulk density and tapped bulk density; product of Example 3. The protocol:
The ratio between the bulk density and the tapped bulk density (Hausner Ratio) of the Hydrobromide was determined using standard methods (“Pharmaceutics—The Science of Dosage Form Design”, editor M. Aulton, 1988, published by: Churchill Livingstone).

`Br.CN(CCOc1ccc(CC2SC(=O)NC2=O)cc1)c1ccccn1` (stereo not drawn) [Hydrobromide, 5-[4-[2-(N-methyl-N-(2-pyridyl)amino)ethoxy]benzyl]thiazolidine-2,4-dione hydrobromide] showed a solubility in series [1] of 6000 µg/mL. In addition, in series [2] (40° C./75% RH, open exposure), the “Solid state stability: HPLC assay” value turned out to be 98 % initial and the “Solid state stability: degradation” value is given as “No significant degradation observed”. In series [2] (50° C., closed), the “Solid state stability: HPLC assay” value is 98 % initial and the “Solid state stability: degradation” value is recorded as “No significant degradation observed”. The “Hausner Ratio” value in series [3] is on record as 1.3.
